Experimental data: article PMC12440824, “Chimeric deubiquitinase engineering reveals structural basis for specific inhibition of the mitophagy regulator USP30” (Nature Structural & Molecular Biology, 2025)
Like-named read-outs stand apart in the source and are kept apart here.

Assays:
USP30^c1 = target: T1, USP30^c1 (Homo sapiens, UniProt Q70CQ3, DEL179-208/DEL211-214/DEL358-428/F348D/I353E/M350S/N216S/S215G); test: Thermal shift assay, USP30 c1; format: binding; conditions: for Tm in presence of compound, USP30^c1: 20 μM inhibitor
T1 sequence (Q70CQ3 with tags, fused parts or gaps DEL179-208/DEL211-214/S215G/N216S/F348D/M350S/I353E/DEL358-428): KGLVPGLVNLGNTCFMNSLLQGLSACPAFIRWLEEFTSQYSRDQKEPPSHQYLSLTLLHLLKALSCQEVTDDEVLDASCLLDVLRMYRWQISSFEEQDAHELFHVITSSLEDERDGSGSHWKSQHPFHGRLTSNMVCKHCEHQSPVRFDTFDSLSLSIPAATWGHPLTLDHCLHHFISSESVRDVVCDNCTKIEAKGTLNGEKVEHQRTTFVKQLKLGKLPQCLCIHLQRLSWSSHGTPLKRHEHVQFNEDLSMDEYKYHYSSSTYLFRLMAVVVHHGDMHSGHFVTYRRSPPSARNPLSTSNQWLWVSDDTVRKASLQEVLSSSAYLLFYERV
Protocol: (§1) The thermal stability of USP30 constructs and effects of either inhibitor or Ub-PA binding were determined by thermal shift assays. Inhibitor, Ub-PA and SYPRO orange dye (Sigma, 5,000× stock in DMSO) solutions were prepared in 1× PBS, 4 mM DTT. Inhibitor/Ub-PA was prediluted to 100 µM, and SYPRO orange dye was prediluted to 50× (from the commercial stock). Mixtures of protein, inhibitor/Ub-PA and SYPRO were prepared with inhibitor/Ub-PA at a final concentration of 20 μM, SYPRO at a final concentration of 4× and protein at a final concentration of 2 μM for c1, 4 μM for ch1, ch4 and c2 and 3 μM for ch2 and ch3. Samples were added in triplicate to a white 96-well PCR plate (Bio-Rad). Fluorescence intensity was monitored (excitation, 450–490 nm; emission, 560–580 nm) at a gradient of 20–90 °C (increment of 0.3 °C, hold for 5 s before read) on a real-time PCR system (Bio-Rad).

USP30^ch1 = USP30^ch1 (Homo sapiens, UniProt Q70CQ3); test: Thermal shift assay, USP30 ch1; format: binding; conditions: 20 μM inhibitor
Chain of USP30^ch1 (Q70CQ3 64-502): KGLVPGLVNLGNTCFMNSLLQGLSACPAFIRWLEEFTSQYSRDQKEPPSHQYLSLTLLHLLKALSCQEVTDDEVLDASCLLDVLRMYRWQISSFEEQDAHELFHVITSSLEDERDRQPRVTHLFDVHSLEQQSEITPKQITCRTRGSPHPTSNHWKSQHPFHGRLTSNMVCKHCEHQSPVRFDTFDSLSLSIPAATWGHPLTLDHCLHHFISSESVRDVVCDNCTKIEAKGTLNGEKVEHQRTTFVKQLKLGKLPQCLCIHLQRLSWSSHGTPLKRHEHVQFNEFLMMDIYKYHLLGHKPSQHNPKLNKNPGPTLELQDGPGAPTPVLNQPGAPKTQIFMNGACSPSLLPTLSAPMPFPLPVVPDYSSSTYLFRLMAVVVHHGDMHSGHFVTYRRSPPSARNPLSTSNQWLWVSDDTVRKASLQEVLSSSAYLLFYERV
Chain of USP30^ch1 (Q93009 325-395 partner): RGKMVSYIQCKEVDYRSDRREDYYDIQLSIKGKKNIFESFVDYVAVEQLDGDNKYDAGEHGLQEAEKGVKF
Protocol: as §1

USP30^ch2 = USP30^ch2 (Homo sapiens, UniProt Q70CQ3); test: Thermal shift assay, USP30 ch2; format: binding; conditions: 20 μM inhibitor
Chain of USP30^ch2 (Q70CQ3 64-502): as the sequence (Q70CQ3 64-502) above
Chain of USP30^ch2 (P54578 248-318 partner): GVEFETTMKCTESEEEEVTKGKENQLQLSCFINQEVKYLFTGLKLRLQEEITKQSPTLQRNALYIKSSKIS
Protocol: as §1

USP30^ch3 A162S = USP30^ch3 A162S (Homo sapiens, UniProt Q70CQ3, A162S, form not given); test: Thermal shift assay, USP30 ch3 A162S; format: binding; conditions: 20 μM inhibitor
Chain of USP30^ch3 A162S (Q70CQ3 64-502 A162S, form open): as the sequence (Q70CQ3 64-502) above, with A99S counted along it
Chain of USP30^ch3 A162S (P54578 248-318 partner, form open): as the sequence (P54578 248-318 partner) above
Chain of USP30^ch3 A162S (Q9P2H5 821-846 partner, form open): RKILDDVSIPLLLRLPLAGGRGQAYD
Protocol: as §1

[1] = system: HeLa cells expressing YFP–parkin; ubiquitination of USP30 substrates (TOM20, TOM40, MFN2); test: Mitochondrial ubiquitination analysis (OtUBD enrichment, western blot); format: cell-based, human; conditions: 2 µM compound 19 h, then 10 µM CCCP 1 h
Protocol: Using a Trans-Blot Turbo system (Bio-Rad, 1.0 A, 25 V, 30 min), proteins were blotted onto a nitrocellulose membrane. Membranes were saturated by incubating in 5% (wt/vol) non-fat milk in PBS-T. Primary antibodies (anti-Flag, 1:1,000, Sigma, F3165; anti-USP30, 1:500, Sigma, HPA016952; anti-vinculin, 1:10,000, Sigma, V9131; anti-GAPDH, 1:10,000, Thermo Fisher, AM4300; anti-TOM40, 1:2,000, Proteintech, 18409-1-AP; anti-TOM20, 1:5,000, Proteintech, 11802-1-AP; anti-MFN2, 1:5,000, Proteintech, 12186-1-AP) were allowed to bind overnight. Appropriate horseradish peroxidase-coupled secondary antibodies (anti-mouse, 1:5,000, Sigma, NXA931; anti-rabbit, 1:5,000, Sigma, GENA934) were applied, and chemiluminescence was generated using Clarity Western ECL Substrate (Bio-Rad). For detection of endogenous USP30 levels, the Clarity Western ECL Substrate was supplemented with 10% Clarity Max Western ECL Substrate (Bio-Rad). Images were recorded on a ChemiDoc MP Imaging System (Bio-Rad).
HeLa cells constitutively expressing YFP–parkin were treated with 2 µM of the respective compounds or an equivalent volume of DMSO on the day after seeding. Nineteen hours after compound treatment, 10 µM carbonyl cyanide m-chlorophenyl hydrazone (CCCP, Acros Organics) or DMSO of the equivalent volume was added for 1 h before cells were washed with ice-cold PBS. Cells were then lysed in urea lysis buffer (4 M urea, 50 mM Tris-HCl, pH 8, 150 mM NaCl, 1% (vol/vol) IGEPAL, 2 mM EDTA, 5% (vol/vol) glycerol, 1× EDTA-free protease inhibitor cocktail, 1 mM PMSF, 10 µM PR619, 20 mM N-ethylmaleimide, 4 mM 1,10-phenanthroline) and collected by scraping. Cells were homogenized by sonication for 10 s (2 s on and 2 s off) at 10% amplitude and centrifuged for 10 min at 14,000g and 4 °C.
Biotinylated OtUBD (2 nmol, prepared as described elsewhere[53]) was immobilized on 35 µl of a high-capacity NeutrAvidin agarose bead slurry (Pierce, Thermo Fisher Scientific) per condition for 1 h at 4 °C with rotation. Excess reagent was washed away with ice-cold PBS. The beads were then equilibrated in urea lysis buffer. For each condition, an equal amount of 3 mg protein (as determined by the Bradford assay, in 1 ml of lysis buffer, typically obtained from one 10-cm dish) was added to the beads. These were then incubated for 2 h at 4 °C with rotation and pelleted by centrifugation at 500g for 1 min, and the supernatant was removed. Beads were then washed once with lysis buffer, once with high-salt buffer (50 mM Tris-HCl, pH 8, 1 M NaCl) and twice with PBS. Elution was carried out using 2× LDS sample buffer with 25 mM DTT and boiling for 5 min at 95 °C. After pelleting the beads at 500g for 1 min, the supernatant was transferred and analyzed by SDS–PAGE and western blotting as described above.

| SMILES | Tm in presence of compound, USP30^c1 (USP30^c1) [°C] | ΔTm at 20 µM (USP30^c1; read-out: ΔTm, USP30^c1) [°C] | ΔTm at 20 µM (USP30^c1; read-out: ΔTm, column headed USP30c1 in sheet Fig. 4f) [°C] | Tm in presence of compound, USP30^ch1 (USP30^ch1) [°C] | Tm in presence of compound, USP30^ch2 (USP30^ch2) [°C] | Tm in presence of compound, USP30^ch3 A162S (USP30^ch3 A162S) [°C] | polyubiquitination of TOM20 and TOM40 [1] | polyubiquitination of mitofusin 2 (MFN2) [1] |
| --- | --- | --- | --- | --- | --- | --- | --- | --- |
| CC(C)(CO)NS(=O)(=O)c1ccc(NC(=O)[C@H](Cc2ccccc2)NC(=O)c2ccc(F)cc2)cc1 [NK036] | 58.3 | 7.2 | 6.1 | 55.2 | 58.5 | 59.7 | elevated | not affecting |
| CC(C)(C)NS(=O)(=O)c1ccc(NC(=O)[C@H](Cc2ccccc2)NC(=O)c2ccc(F)cc2)cc1 [compound 39] | 58.9 | 7.8 |  | 56.1 | 59.1 | 60.0 | elevated | not affecting |
